Measured values as given in patent US8158139B2 (priority 2004, dated 2012).

experiment: Flash point of solvents, closed cup method; type: physicochemical
Description: In one embodiment, the formulation contains a mixture of organic solvent and isopropyl alcohol.

SMILES	flash point
OCc1ccccc1 [benzyl alcohol]	100.6 °C
C=C(C)[C@H]1CC=C(C)CC1 [dipentene]	46 °C
CCO [ethyl alcohol]	14 °C
CC(C)O [isopropyl alcohol]	11.7 °C
CC(O)CO (centres unmarked) [propylene glycol]	99 °C
